One data set deals with T1, human α7 nAChRs (Homo sapiens, UniProt P36544).
T1 construct: expressed in transfected cells; host or cells: Xenopus laevis oocytes injected with in vitro transcribed capped cRNA (pSP64T derivatives)
In words: Two-electrode voltage-clamp in Xenopus oocytes expressing human α7 nAChRs: potentiation of ACh-evoked currents. Type of data set: cell-based. Conditions: for nH of ACh concentration-response curve / Imax of ACh concentration-response curve / maximal potentiating effect: Hill fit; for activity at 10 µM: read-out: % ± s.e. Current vs. ACh [200 µM]; for % ± s.e. Current vs. ACh [200 µM]: Table 1; for % ± s.e. Current vs. ACh [200 µM] / % ± s.e. Current Vs. ACh [200 µM]: compound 10 µM co-applied with 200 µM ACh, −80 mV, normalized to ACh alone, 6–10 oocytes; for maximal potentiating effect: concentration-response, co-applied with ACh 200 µM, estimated; for % ± s.e. Current Vs. ACh [200 µM]: Table 2; for PAM properties / effect on ACh-induced currents, in words: 10 µM screening. Here is the method:
The obtained compounds were screened to determine their capacity to modulate the α7 nAChR activity (Table 2).
All human nAChR cDNAs were cloned in derivatives of the pSP64T vector containing part of the pBluescript polylinker. Capped mRNA was synthesized in vitro using SP6 RNA polymerase, the mMESSAGEmMACHINE kit from Ambion (Thermo Fisher Scientific, Madrid, Spain), and the pSP64T derivatives mentioned above. Defoliculated Xenopus laevis oocytes were injected with 5 ng of each subunit cRNA in 50 nL of sterile water. All experiments were performed within 2–3 days after cRNA injection. […] Barium, instead of calcium, was used as the extracellular divalent cation to avoid the presence of calcium-activated chloride currents. […] All experiments were performed at 22 °C. The holding potential was usually −80 mV. Current records were measured with Clampfit 10.0 (MDS Analytical Technologies, Sunnyvale, CA, USA). […] Data are expressed as mean ± SEM. All chemicals were purchased from Sigma-Aldrich (St. Louis, MO, USA).

The subject of a further data set is α7 nAChRs. As to conditions: cited from earlier work; for reported profile on ACh-evoked α7 nAChR currents in oocytes: oocytes expressing α7 nAChRs.
Data set [1] can be described thus: Solubility as noted in the concentration-response experiments. Type of data set: physicochemical. As to conditions: hindered the use of higher concentrations in the curves. Here is the method: Figure 1 Characterization of curcumin (12) and two curcuminoids (compounds 13 and 14). (a–c) Ionic currents recorded in representative oocytes expressing human α7 nAChRs. […] All currents were recorded at a holding potential of –80 mV. […] Continuous lines represent the fit to the Hill equation. […] Thus, maximal potentiating effects were estimated as 11 ± 3-, 5.5 ± 0.3-, and 5.5 ± 1.0-fold for compounds 12, 13, and 14, respectively. […] Data were taken from 3–7 oocytes from at least 2 donors.

Data set [2] can be described thus: Chemical stability in H2O/acetonitrile 20/80 checked by HPLC. The format is physicochemical. As to conditions: period of two months. From the text:
To discard any possible artefacts due to decomposition of the compounds in solution, the chemical stability of the best compounds 17, 23, and 25 was checked in aqueous mixtures of H2O/acetonitrile 20/80 for a period of two months.

The mark [3] stands for this setting: read-out: EC50 of potentiating effect.
Where [4] appears, read: in the presence of compound 13 vs absence.

Where two headings read alike, the source gives them in different places.

T1 sequence (P36544 23-502): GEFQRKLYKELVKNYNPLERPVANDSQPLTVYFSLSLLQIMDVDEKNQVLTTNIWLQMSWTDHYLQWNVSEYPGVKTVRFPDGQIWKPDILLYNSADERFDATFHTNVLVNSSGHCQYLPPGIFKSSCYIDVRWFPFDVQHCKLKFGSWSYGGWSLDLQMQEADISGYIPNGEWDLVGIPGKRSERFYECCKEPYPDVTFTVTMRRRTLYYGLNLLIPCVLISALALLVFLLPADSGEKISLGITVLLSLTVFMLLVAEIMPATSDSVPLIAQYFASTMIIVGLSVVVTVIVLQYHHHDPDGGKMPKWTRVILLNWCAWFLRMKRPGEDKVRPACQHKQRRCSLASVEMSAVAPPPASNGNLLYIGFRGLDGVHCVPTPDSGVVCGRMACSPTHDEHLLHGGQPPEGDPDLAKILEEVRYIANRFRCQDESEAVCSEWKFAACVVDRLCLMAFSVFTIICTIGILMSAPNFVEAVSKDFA

For the compound `CC(=O)OCC[N+](C)(C)C` [ACh, acetylcholine], the “nH of ACh concentration-response curve” value on human α7 nAChRs (control conditions (ACh alone)) is listed as 1.25. The “Imax of ACh concentration-response curve” value on human α7 nAChRs (control conditions (ACh alone), normalized to peak current with 1 mM ACh) is reported as 1.25.
For `O=c1cc(-c2ccc(O)cc2)oc2cc(O)cc(O)c12` [Compound 1, Apigenin], on human α7 nAChRs, the activity at 10 µM is 108 ± 4%.
For the compound `O=c1c(O)c(-c2ccc(O)c(O)c2)oc2cc(O)cc(O)c12` [Compound 2, Quercetin], the “% ± s.e. Current vs. ACh [200 µM]” value on human α7 nAChRs worked out at 130 ± 10%. Moreover, the “reported profile on ACh-evoked α7 nAChR currents in oocytes” value with α7 nAChRs is given as “PAM profile”.
Consider `O=c1cc(-c2ccc(O)c(O)c2)oc2cc(O)cc(O)c12` [Compound 3, Luteolin], for which the activity at 10 µM at human α7 nAChRs amounted to 125 ± 5.5%.
In the case of `O=c1c(-c2ccc(O)cc2)coc2cc(O)cc(O)c12` [Compound 4, Genistein], the activity at 10 µM at human α7 nAChRs amounted to 154 ± 10%. Further, the “reported profile on ACh-evoked α7 nAChR currents in oocytes” value with α7 nAChRs is listed as “PAM profile”.
Turning to `O=c1c(O)c(-c2ccc(O)c(O)c2)oc2c(O)c(O)cc(O)c12` [Compound 5, Gossypetin], the activity at 10 µM on human α7 nAChRs is 115 ± 2%.
For `O=c1c(O)c(-c2ccc(O)cc2)oc2cc(O)cc(O)c12` [Compound 6, Kaempferol], the activity at 10 µM at human α7 nAChRs came to 155 ± 5%.
In the case of `O=c1c(O)c(-c2cc(O)c(O)c(O)c2)oc2cc(O)cc(O)c12` [Compound 7, Myricetin], the activity at 10 µM on human α7 nAChRs is 97 ± 6%.
In the case of `O=C1C[C@@H](c2ccc(O)c(O)c2)Oc2cc(O)cc(O)c21` [Compound 8, Eriodictyol], at human α7 nAChRs, the activity at 10 µM worked out at 108 ± 2.5%.
Same read-out and setting: the result for `O=C1C[C@@H](c2ccc(O)cc2)Oc2cc(O)cc(O)c21` [Compound 9, Naringenin] reads 105 ± 3%; that for `O=C1c2c(O)cc(O)cc2OC(c2ccc(O)c(O)c2)C1O` (stereo not drawn) [Compound 10, Taxifolin], 107 ± 5.5%; that for `O=C(CCc1ccc(O)cc1)c1c(O)cc(O)cc1O` [Compound 11, Phloretin], 231 ± 0.5%.
The EC50 is the concentration at which the effect is half-maximal. Take `COc1cc(/C=C/C(=O)CC(=O)/C=C/c2ccc(O)c(OC)c2)ccc1O` [Compound 12, Curcumin]: the “solubility, in words” value in data set [1] is recorded as “Limited solubility”. Also, at human α7 nAChRs, the maximal potentiating effect is recorded as 11 ± 3 fold and the activity at 10 µM came to 148 ± 43%. Also, on human α7 nAChRs (maximal effect from concentration-response, only approximated), the “enhancement of ACh-induced currents” value is reported as around 1100%. For the same compound, the EC50 on human α7 nAChRs (setting [3]) was found to be 85 ± 35 µM. In addition, the “reported type of α7 nAChR modulation” value in the data set on α7 nAChRs is “Type II PAM”.
Consider `COc1cc(/C=C/C(O)=C/C(=O)/C=C/c2ccc(O)cc2)ccc1O` [Compound 13, Demethoxycurcumin], for which the “solubility, in words” value in data set [1] is “Limited solubility”. At human α7 nAChRs, the EC50 was 4.9 µM, the “% ± s.e. Current vs. ACh [200 µM]” value is recorded as 408 ± 18%, the maximal potentiating effect is given as 5.5 ± 0.3 fold and the activity at 10 µM amounted to 408%. In addition, at human α7 nAChRs (in the presence of 3 µM 13), the “nH of ACh concentration-response curve” value was found to be 2.36. In addition, on human α7 nAChRs (in the presence of 3 µM 13, normalized to control peak current with 1 mM ACh), the “Imax of ACh concentration-response curve” value turned out to be 2.70. Besides, at human α7 nAChRs (setting [4]), the “increase in apparent efficacy of ACh” value amounted to 2 fold and the “leftward shift of ACh dose-response curve” value came out at 3 fold.
Regarding `O=C(/C=C/c1ccc(O)cc1)CC(=O)/C=C/c1ccc(O)cc1` [Compound 14, Bisdemethoxycurcumin], the “solubility, in words” value in data set [1] is given as “Limited solubility”. In addition, on human α7 nAChRs, the “% ± s.e. Current vs. ACh [200 µM]” value worked out at 469 ± 42%, the maximal potentiating effect is listed as 5.5 ± 1.0 fold and the activity at 10 µM was determined as 469%. Besides, the EC50 at human α7 nAChRs (setting [3]) is 6.9 ± 3.1 µM.
Consider `COc1ccc(/C=C/C(=O)/C=C(O)/C=C/c2ccc(OC)cc2OC)c(OC)c1` [Compound 17, (1E,4Z,6E)-1,7-Bis(2,4-dimethoxyphenyl)-5-hydroxyhepta-1,4,6-trien-3-one], for which the “chemical stability in solution (HPLC retention times and purity)” value (“chemical stability in solution” below) in data set [2] is “no alteration on the retention times and purity”.
`COc1ccc(CCC(=O)/C=C(\O)CCc2ccc(OC)cc2OC)c(OC)c1` [Compound 23, (Z)-1,7-Bis(2,4-dimethoxyphenyl)-5-hydroxyhept-4-en-3-one]: in data set [2], the “chemical stability in solution” value is “no alteration on the retention times and purity”. The “% ± s.e. Current Vs. ACh [200 µM]” value on human α7 nAChRs is given as 498 ± 7%. The “Maximal activation over the control” value at human α7 nAChRs (already observed at 1 µM, ACh 200 µM) is listed as “about 3 fold”. In addition, the EC50 on human α7 nAChRs (setting [3]) stood at 0.44 ± 0.28 µM.
In the case of `O=C(/C=C(\O)CCc1ccc(O)cc1O)CCc1ccc(O)cc1O` [Compound 25, (Z)-1,7-Bis(2,4-dihydroxyphenyl)-5-hydroxyhept-4-en-3-one], the “chemical stability in solution” value in data set [2] is “no alteration on the retention times and purity”. Moreover, on human α7 nAChRs, the “% ± s.e. Current Vs. ACh [200 µM]” value was 251 ± 24%.
Turning to “(1E, 4Z, 6E) -1-(2,4-Dimethoxyphenyl)-7-(2-fluoro-4-methoxyphenyl)-5-hydroxyhepta-1,4,6 -trien-3-one [Compound 22]”, the “PAM properties / effect on ACh-induced currents, in words” value (from here on “PAM properties / effect”) at human α7 nAChRs (ACh 200 µM) is “increases them only slightly”. Further, the “% ± s.e. Current Vs. ACh [200 µM]” value at human α7 nAChRs stood at 153 ± 17%.
In the case of “(1E, 4Z, 6E)-1-(2,4-Dimethoxyphenyl)-7-(2,5-dimethoxyphenyl)-5-hydroxyhepta-1,4,6-trien-3-one [Compound 21]”, the “PAM properties / effect” value at human α7 nAChRs (ACh 200 µM) is “No significant PAM properties”. The “% ± s.e. Current Vs. ACh [200 µM]” value on human α7 nAChRs came to 107 ± 4%.
In the case of “(Z)-1-(2,4-Dimethoxyphenyl)-7-(2,5-dimethoxyphenyl)-5-hydroxyhept-4-en-3-one [Compound 24]”, the “PAM properties / effect” value at human α7 nAChRs (ACh 200 µM) is recorded as “No significant PAM properties”. For the same compound, at human α7 nAChRs, the “% ± s.e. Current Vs. ACh [200 µM]” value was 53.5 ± 3.5%.

(Values after publication PMC7835927, “Natural Polyhydroxy Flavonoids, Curcuminoids, and Synthetic Curcumin Analogs as α7 nAChRs Positive Allosteric Modulators” (International Journal of Molecular Sciences, 2021).)
